In patent US20230345975A1, “COMPOSITIONS AND METHODS OF PRESERVING MEAT SUBSTITUTES” (Wisconsin Alumni Research Foundation, priority 2016, published 2023):
“Also recorded” adds a separate entry of the source. Read-outs that look alike come from different tables or passages of the source.

Experiments:
[1] = molecular target: plant Hb (soybean hemoglobin; Lba) in meat analog (Glycine max, UniProt P02238); experiment: Color stability of meat analog during refrigerated light display
Method: FIG. 1—Color stability of meat analog. Treatments: Water (W); 2.5 mmol/kg tissue Niacin (NA). Packaging: High oxygen package (80% O2, 20% CO2). Water content: 3% water capacity. Days under light (˜300 ft): 4 days under light display at 1-3° C.
FIG. 3—Effect of high oxygen during packaging. […] W-water added. All samples were stored at 1-3° C. during light display (300 foot candles).
The niacin can also be added to the solid plant protein/plant fat matrix already containing the added plant Hb. There is approximately 150 μmol of plant heme/kg meat analog. Therefore, a targeted final concentration of niacin would be 150 μmol/kg meat analog, which is equivalent to 18.5 mg niacin per kg meat analog.
Niacin is added to the meat analog already containing the plant Hb (soybean hemoglobin; Lba) and the product is stored under lights in high oxygen packaging during 4 days of refrigerated storage.

[2] = cited from earlier work
[3] = molecular target: soybean Hb (Lba) (Glycine max, UniProt P02238); experiment: Redness (a-value) of Lba solutions after exposure to 35 fc of light for 4 days; settings: for Redness (a-value) at day 4: 35 fc light, 4 days, main effect over pH
Method: FIG. 2—Effect of pH and different molar ratios of niacin to soybean Hb on the redness of Lba solutions. Measurement after exposure to 35 fc of light for 4 days
100 grams of meat analog containing a 3:1 dose of niacin would provide 5.9 mg niacin; a 6:1 dose would provide 11.8 mg niacin.

[4] = cited from earlier work; remark: listed apart in the source

Sequence of soybean Hb (Lba) (P02238 whole entry): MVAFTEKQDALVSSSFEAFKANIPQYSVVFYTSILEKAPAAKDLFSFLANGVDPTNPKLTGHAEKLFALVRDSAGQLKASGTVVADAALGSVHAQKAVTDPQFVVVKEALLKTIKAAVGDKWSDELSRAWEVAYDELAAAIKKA
Sequence of plant Hb (soybean hemoglobin; Lba) in meat analog (P02238 whole entry): as above

O=C1O[C@H]([C@@H](O)CO)C(O)=C1O [Ascorbic acid]
color stabilization of meat analog ([1]; high oxygen packaging 80% O2/20% CO2, light display 300 foot candles, 1-3° C.): did not stabilize color

N[C@@H](Cc1c[nH]cn1)C(=O)O [histidine, Histidine]
pKa ([2]; buffer): ~6
pKa of the conjugate acid (protonated form) of the imidazole side chain [2]: approximately 6.0

O=C(O)c1cccnc1 [niacin, nicotinic acid]
color retention of meat analog ([1]; 2.5 mmol/kg niacin, high oxygen package (80% O2, 20% CO2), 4 days under light display at 1-3° C.): retains a superior color; also recorded: retain a pink color for four days
time for which meat analog maintained color ([1]; storage entirely in 80% O2/20% CO2, light display 300 foot candles, 1-3° C.): ≤ 11 days
ability to stabilize color in meat analog after change of packaging ([1]; transferred from 80% O2/20% CO2 at day 4 to air-permeable overwrap, assessed at day 8): lost
stabilization of red color of Lba solution versus control with no niacin ([3]; 1:1 (niacin:Lba) ratio): stabilized red color better than control
Redness (a-value) at day 4 ([3]; niacin:Lba molar ratio 1:1): 4.10c
Redness (a-value) at day 4 ([3]; niacin:Lba molar ratio 3:1): 5.35b
Redness (a-value) at day 4 ([3]; niacin:Lba molar ratio 6:1): 5.79a
Tolerable Upper Intake Level (UL) ([4]; European Food Safety Authority): 10 mg/day
Tolerable Upper Intake Level (UL) ([4]; Food and Nutrition Board of the U.S. Institute of Medicine): 35 mg/day

Imidazole
pKa as an acid ([2]; acidic proton on N-1): 14.5
pKa of the conjugate acid (pKBH+) ([2]; as a base, basic site N-3): approximately 7
